We go through three compounds from article doi:10.1101/2023.12.04.569845, “Identification of 4-(6-((2-methoxyphenyl)amino)pyrazin-2-yl)benzoic acids as CSNK2A inhibitors with antiviral activity and improved selectivity over PIM3” (bioRxiv, 2023).

What all share (test): biochemical
Holding throughout (set-up): Thermal shift (DSF, SYPRO Orange) Tm shift of recombinant kinase domains at 10 uM compound

For test [1], the target named is T1, AurA (Homo sapiens, UniProt O14965).
T1 construct: gene AURKA
T1 sequence (O14965 1-403): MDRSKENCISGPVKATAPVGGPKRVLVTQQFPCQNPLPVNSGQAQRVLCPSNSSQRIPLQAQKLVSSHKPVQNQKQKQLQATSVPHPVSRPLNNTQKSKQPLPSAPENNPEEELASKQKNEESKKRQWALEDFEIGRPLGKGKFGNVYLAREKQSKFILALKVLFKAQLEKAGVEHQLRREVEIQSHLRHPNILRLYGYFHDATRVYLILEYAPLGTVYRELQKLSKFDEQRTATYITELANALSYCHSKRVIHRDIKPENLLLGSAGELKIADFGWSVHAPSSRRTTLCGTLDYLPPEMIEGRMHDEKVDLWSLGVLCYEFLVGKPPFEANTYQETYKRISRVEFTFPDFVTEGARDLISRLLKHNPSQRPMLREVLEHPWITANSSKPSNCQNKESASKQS

For test [2], the target named is T2, BMPR2 (Homo sapiens, UniProt Q13873).
T2 sequence (Q13873 1-1038): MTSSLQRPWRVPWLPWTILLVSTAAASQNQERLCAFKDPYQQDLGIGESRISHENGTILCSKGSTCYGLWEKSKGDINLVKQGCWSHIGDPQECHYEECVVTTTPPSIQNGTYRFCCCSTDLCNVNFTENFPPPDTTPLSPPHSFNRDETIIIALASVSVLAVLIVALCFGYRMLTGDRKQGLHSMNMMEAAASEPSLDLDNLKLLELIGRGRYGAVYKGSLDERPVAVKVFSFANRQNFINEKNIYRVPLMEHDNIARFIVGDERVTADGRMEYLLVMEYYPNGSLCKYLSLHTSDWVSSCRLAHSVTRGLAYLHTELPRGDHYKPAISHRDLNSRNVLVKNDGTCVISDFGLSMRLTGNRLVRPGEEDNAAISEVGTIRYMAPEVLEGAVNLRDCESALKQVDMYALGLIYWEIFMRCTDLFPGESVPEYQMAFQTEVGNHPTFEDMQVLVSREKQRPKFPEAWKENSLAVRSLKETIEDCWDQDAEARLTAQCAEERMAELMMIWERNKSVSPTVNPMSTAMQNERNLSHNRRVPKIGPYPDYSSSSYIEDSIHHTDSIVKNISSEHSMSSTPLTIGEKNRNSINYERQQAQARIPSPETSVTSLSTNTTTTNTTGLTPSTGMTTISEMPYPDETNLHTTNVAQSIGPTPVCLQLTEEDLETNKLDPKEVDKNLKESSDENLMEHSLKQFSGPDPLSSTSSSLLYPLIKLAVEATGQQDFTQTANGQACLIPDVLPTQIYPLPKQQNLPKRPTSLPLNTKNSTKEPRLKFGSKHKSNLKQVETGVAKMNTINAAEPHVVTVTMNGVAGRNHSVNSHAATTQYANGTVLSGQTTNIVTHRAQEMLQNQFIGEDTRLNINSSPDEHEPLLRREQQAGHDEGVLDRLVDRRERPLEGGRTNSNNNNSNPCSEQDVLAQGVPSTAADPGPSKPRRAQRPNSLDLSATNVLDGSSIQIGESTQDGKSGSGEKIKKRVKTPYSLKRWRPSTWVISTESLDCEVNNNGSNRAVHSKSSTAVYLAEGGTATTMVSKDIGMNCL

For test [3], the target named is AAK1 (Homo sapiens, UniProt Q2M2I8).
In test [4] the target is T3, MYT1 (Homo sapiens, UniProt Q99640).
T3 construct: gene PKMYT1
T3 sequence (Q99640 1-499): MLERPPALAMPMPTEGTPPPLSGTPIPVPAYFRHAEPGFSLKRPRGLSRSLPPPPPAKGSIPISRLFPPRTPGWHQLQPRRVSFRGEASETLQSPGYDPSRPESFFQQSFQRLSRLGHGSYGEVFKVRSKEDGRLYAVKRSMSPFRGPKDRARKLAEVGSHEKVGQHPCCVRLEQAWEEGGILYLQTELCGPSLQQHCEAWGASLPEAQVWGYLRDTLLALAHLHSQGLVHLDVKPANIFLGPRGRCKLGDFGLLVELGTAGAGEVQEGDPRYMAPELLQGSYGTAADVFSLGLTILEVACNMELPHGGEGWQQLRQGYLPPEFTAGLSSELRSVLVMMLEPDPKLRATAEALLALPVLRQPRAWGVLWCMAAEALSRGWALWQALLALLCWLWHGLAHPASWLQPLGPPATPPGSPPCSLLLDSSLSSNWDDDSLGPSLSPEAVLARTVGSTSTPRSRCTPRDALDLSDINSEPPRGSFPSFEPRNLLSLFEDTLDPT

Test [5] addresses T4, DYRK2 (Homo sapiens, UniProt Q92630).
T4 sequence (Q92630 1-601): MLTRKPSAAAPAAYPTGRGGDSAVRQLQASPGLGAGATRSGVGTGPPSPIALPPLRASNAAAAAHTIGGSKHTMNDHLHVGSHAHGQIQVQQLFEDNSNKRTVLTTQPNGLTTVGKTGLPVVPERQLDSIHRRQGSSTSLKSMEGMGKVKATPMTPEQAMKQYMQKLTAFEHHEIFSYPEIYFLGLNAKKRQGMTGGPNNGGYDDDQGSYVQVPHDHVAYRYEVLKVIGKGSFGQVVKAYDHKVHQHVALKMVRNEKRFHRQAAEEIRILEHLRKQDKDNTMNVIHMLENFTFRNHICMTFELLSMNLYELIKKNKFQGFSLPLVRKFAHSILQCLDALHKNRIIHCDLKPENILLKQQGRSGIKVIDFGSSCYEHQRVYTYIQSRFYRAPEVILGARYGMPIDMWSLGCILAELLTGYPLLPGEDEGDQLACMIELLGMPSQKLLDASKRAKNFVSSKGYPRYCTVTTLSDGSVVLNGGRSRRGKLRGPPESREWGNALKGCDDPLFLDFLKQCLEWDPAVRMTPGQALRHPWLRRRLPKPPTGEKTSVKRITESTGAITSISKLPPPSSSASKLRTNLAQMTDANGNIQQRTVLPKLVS

Test [6] addresses EPHA4 (Homo sapiens, UniProt P54764).

SMILES strings stand for the structures. Like-named read-outs stand apart in the source and are kept apart here.

Sequence of EPHA4 (P54764 whole entry): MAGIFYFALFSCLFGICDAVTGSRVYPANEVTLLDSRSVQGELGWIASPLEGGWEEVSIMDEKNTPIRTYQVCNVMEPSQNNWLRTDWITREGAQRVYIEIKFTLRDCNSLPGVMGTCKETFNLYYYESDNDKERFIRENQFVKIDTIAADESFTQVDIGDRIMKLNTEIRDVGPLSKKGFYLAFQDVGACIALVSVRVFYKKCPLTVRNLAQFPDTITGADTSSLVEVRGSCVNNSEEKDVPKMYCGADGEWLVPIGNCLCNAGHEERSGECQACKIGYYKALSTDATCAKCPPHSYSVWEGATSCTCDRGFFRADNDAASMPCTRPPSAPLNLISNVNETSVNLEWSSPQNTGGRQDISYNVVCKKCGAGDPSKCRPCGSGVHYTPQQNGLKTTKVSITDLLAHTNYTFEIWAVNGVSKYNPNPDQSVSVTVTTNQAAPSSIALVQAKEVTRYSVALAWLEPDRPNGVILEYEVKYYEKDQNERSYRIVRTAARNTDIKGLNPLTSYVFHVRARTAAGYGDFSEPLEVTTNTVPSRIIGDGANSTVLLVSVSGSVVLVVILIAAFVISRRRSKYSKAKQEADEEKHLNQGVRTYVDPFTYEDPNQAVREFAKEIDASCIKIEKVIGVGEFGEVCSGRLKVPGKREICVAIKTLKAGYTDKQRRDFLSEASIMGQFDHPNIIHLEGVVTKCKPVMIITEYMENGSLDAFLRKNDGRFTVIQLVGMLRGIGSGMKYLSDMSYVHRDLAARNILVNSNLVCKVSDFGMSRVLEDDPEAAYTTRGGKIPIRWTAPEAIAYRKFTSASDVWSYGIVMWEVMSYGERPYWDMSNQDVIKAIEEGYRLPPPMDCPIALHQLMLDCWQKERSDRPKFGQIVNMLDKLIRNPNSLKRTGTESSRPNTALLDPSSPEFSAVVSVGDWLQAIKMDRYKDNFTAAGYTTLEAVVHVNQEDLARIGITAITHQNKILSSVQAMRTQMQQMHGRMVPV
Sequence of AAK1 (Q2M2I8 whole entry): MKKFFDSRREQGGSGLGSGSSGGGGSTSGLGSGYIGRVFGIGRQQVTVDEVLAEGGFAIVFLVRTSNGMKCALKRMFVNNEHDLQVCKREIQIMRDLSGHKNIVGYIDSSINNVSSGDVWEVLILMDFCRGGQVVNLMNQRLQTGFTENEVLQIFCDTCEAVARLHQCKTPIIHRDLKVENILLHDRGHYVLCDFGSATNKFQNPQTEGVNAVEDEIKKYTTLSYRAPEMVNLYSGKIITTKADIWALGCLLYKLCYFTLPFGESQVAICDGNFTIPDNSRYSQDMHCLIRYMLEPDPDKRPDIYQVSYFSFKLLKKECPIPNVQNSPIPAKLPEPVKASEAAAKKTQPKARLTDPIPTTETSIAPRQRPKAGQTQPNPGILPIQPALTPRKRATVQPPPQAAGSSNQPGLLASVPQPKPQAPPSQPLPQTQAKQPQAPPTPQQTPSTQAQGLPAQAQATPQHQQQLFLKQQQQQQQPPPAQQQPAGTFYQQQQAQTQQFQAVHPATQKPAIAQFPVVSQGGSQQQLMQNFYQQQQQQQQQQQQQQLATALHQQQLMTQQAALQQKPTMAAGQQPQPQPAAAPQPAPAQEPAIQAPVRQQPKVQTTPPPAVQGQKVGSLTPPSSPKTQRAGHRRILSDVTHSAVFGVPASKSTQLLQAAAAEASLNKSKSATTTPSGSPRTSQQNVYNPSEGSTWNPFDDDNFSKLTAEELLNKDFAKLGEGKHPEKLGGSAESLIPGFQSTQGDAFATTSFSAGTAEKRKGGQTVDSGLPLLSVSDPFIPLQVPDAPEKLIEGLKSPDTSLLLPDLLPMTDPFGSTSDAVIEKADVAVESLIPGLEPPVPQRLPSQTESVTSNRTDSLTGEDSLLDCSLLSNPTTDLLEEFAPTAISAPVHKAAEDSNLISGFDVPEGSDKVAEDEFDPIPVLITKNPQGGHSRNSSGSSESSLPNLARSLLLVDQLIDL

On to `CC(C)Oc1ccc2ccn(-c3cncc(-c4ccc(C(=O)O)cc4)n3)c2c1` [6c], for which the ΔTm at 10 µM in test [1] (read-out: 6c) was 8 °C; in test [2] (read-out: 6c) it was 7 °C; in test [3] (read-out: 6c), 6 °C; in test [4] (read-out: 6c), 0 °C; in test [5] (read-out: 6c), 11 °C; in test [6] (read-out: 6c), 2 °C.
As to `COc1ccc(OC(C)C)cc1Nc1cncc(-c2ccc(C(=O)O)cc2)n1` [7c], the ΔTm at 10 µM in test [1] (read-out: 7c) turned out to be 4 °C; in test [2] (read-out: 7c), 0 °C; in test [3] (read-out: 7c), 5 °C; in test [4] (read-out: 7c), 0 °C; in test [5] (read-out: 7c), 9 °C; in test [6] (read-out: 7c), 1 °C.
Turning to `CC(C)Nc1ccc2cnn(-c3cncc(-c4ccc(C(=O)O)cc4)n3)c2c1` [compound 2, 2], the ΔTm at 10 µM in test [1] (read-out: 2) worked out at 10 °C; in test [2] (read-out: 2), 6 °C; in test [3] (read-out: 2), 7 °C; in test [4] (read-out: 2), 0 °C; in test [5] (read-out: 2) it was 12 °C; in test [6] (read-out: 2), 2 °C.
